Results: patent US5223508A, “Pyridyl carboximidamide compounds useful in treating blood pressure” (Kirin Beer Kabushiki Kaisha, priority 1992, dated 1993)

What was measured:
[1] = system: male ddY mice; assay: Effect on hypoxia (survival time); assay type: in vivo; details: oral, 96% N2 -4% O2, mean ± S.E.M.
Method: Effect of the compound of the present invention on hypoxia
The effect of the compound of the present invention [test compound: N-cyano-N'-(2-nitroxyethyl)-3-pyridinecarboximidamide (compound (13))] on hypoxia was examined in male ddY mice (4 week old). Mice were exposed to a gas mixture of 96% N2 -4% O2 that was streamed in a flow rate of 5 l/min.
The time from the onset of the gas stream till the stop of respiration [survival time (sec)] was measured.
The test compound was orally administered in the dosage form of a 2% suspension in gum arabic 30 minutes before the onset of the gas streaming. The control group was administered a gum arabic suspension only.

[2] = system: potassium channel; assay: Potassium channel activating effect (86Rb efflux from rat thoracic aorta); parameters: species or system male Wistar rats; details: 10^-4M, 8 minutes
Method: Male Wistar rats (weighing 250-350 g) were dehematized to death, and thoracic aortae were rapidly isolated. The aorta was opened along the longitudinal axis to prepare a flat sheet. The preparation was loaded with ^86 Rb in the Krebs-Ringer solution which contained ^86 Rb in the concentration of 10 μCi/ml and was gassed with 95% O2 -5% CO2 at 37° C. for 2 hours. The preparation was then transferred to a Krebs-Ringer solution not containing ^86 Rb, and washed to remove excess radioactivity for 18 minutes by refreshing the solution every 2 minutes. Finally the preparation was placed into a Krebs-Ringer solution containing each compound (10^-4M) for 8 minutes.
The amount of ^86 Rb efflux from the preparation in each period was determined with a γ-counter.
The increment in efflux rate during the application of the compound was expressed as percent of the efflux before the application of the compound.

[3] = system: potassium channel; details: literature; cited from earlier work
[4] = system: animal; details: literature; cited from earlier work
[5] = system: isolated rat aortae; assay: Vasorelaxing effect on the isolated rat aortae (40 mM KCl contraction); parameters: species or system male Wistar rats; details: inhibition of 40 mM KCl-induced contraction, isolated rat aorta
Method: Vasorelaxing effect on the isolated rat aortae
The compounds of the present invention were tested for their physiological activities by measuring the tension of isolated rat aortae isometrically.
Thoracic aortae obtained from male Wistar rats (weighing 250-350 g) were cut into ring segments about 3 mm long. The ring preparation was placed in an organ bath filled with 10 ml of Krebs-Ringer solution that was maintained at 37° C. and gassed with 95% O2 -5% CO2.
The preparation in the organ bath was allowed to equilibrate under resting tension of 1 g. After equilibration period, the solution in the organ bath was replaced with an isotonic solution containing 40 mM KCl to contract the preparation.
After the contraction induced by KCl had reached plateau, the concentration-response relationship for the test compound was determined by means of cumulative addition.
The relaxation response of the test compounds was expressed as the percent inhibition of the contraction induced by KCl, and the IC50 value, which is a concentration required for inhibiting the contraction induced by KCl to an extent of 50%, was calculated by the Probit method from the concentration-response curve.

Row | Compound | Increment of Efflux (86Rb) [2] [%] | potassium channel activating effect [3] | effects in animal experiments [4] | also measured
1 | N#CNC(=NCCO[N+](=O)[O-])c1cccnc1 [Compound (13), N-cyano-N'-(2-nitroxyethyl)-3-pyridinecarboximidamide] | 213.53 | – | – | Survival Time ([1]; 0.3 mg/kg): 130.27 ± 9.32 s; Survival Time ([1]; 1.0 mg/kg): 201.00 ± 13.40 s; Survival Time ([1]; 3.0 mg/kg): 523.15 ± 48.57 s
2 | O=C(NCCO[N+](=O)[O-])c1cccnc1 [Nicorandil, nicorandil] | – | potassium channel activating effect | vasodilating effect, antihypertensive effect, coronary blood flow increasing effect, cerebral vasodilative effect and bronchodilatative effect | –
3 | N#CNC(=NCc1ccccc1)c1cccnc1 [(17), N-cyano-N'-benzyl-3-pyridinecarboximidamide] | 135.41 | – | – | –
4 | N#CNC(=NCCc1ccccc1)c1cccnc1 [(27), N-cyano-N'-(2-phenylethyl)-3-pyridinecarboximidamide] | 206.61 | – | – | –
5 | COc1ccc(NC(=NC#N)c2cccnc2)c(OC)n1 [(40), N-cyano-N'-3-(2,6-dimethoxypyridine)-3-pyridinecarboximidamide] | – | – | – | IC50 [5]: 10 µM
6 | CC1(C)Oc2ccc(C#N)cc2[C@@H](N2CCCC2=O)[C@@H]1O (relative stereo) [chromakalim] | – | potassium channel activating effect | vasodilating effect, antihypertensive effect, coronary blood flow increasing effect, cerebral vasodilative effect and bronchodilatative effect | –
7 | N#CNC(=NCCO[N+](=O)[O-])c1ccncc1 [(41), N-cyano-N'-(2-nitroxyethyl)-4-pyridinecarboximidamide] | 126.88 | – | – | –
8 | CC(N/C(=N\C#N)Nc1ccncc1)C(C)(C)C (centres unmarked) [pinacidil] | – | potassium channel activating effect | vasodilating effect, antihypertensive effect, coronary blood flow increasing effect, cerebral vasodilative effect and bronchodilatative effect | –
